{"source": "DBAASP", "experiment_in_all_cases": "≥ marks a high value that may be exact or a test limit, other limits are often not marked, values filed in µg/mL are converted to µM", "key": {"[1]": {"test_system": "Pseudomonas aeruginosa ATCC 9027"}, "[2]": {"test_system": "Pseudomonas aeruginosa CMCCB 10104"}, "[3]": {"test_system": "Escherichia coli ATCC 25922"}, "[4]": {"test_system": "Staphylococcus aureus NCTC 12493"}, "[5]": {"test_system": "Acinetobacter baumannii ATCC BAA-747"}, "[6]": {"test_system": "Staphylococcus aureus ATCC 25923"}, "[7]": {"test_system": "Staphylococcus aureus ATCC 6538"}, "[8]": {"test_system": "Escherichia coli ATCC 8739"}, "[9]": {"test_system": "Candida albicans ATCC 10231"}, "[10]": {"test_system": "Enterococcus faecium NTCC 12697"}, "[11]": {"test_system": "Klebsiella pneumoniae ATCC 43816"}, "[12]": {"test_system": "Candida albicans ATCC 2002"}, "[13]": {"test_system": "Escherichia coli ATCC BAA-2340"}, "[14]": {"test_system": "Escherichia coli NCTC 13846"}, "Escherichia coli 850": {"test_system": "Escherichia coli 850"}, "[15]": {"test_system": "Pseudomonas aeruginosa 9132"}, "[16]": {"test_system": "Staphylococcus aureus 936"}, "[17]": {"test_system": "Acinetobacter baumannii 2982"}, "Escherichia coli 780": {"test_system": "Escherichia coli 780"}, "[18]": {"test_system": "Acinetobacter baumannii 4956"}, "[19]": {"test_system": "Pseudomonas aeruginosa 2760"}, "[20]": {"test_system": "Staphylococcus aureus 725"}, "[21]": {"test_system": "Escherichia coli ATCC 25726"}, "[22]": {"test_system": "Acinetobacter baumannii ATCC 19606"}, "[23]": {"test_system": "Acinetobacter baumannii I NM8"}, "[24]": {"test_system": "Klebsiella pneumoniae ATCC 700603"}, "[25]": {"test_system": "Acinetobacter baumannii 1980"}, "[26]": {"test_system": "Pseudomonas aeruginosa ATCC 27853"}, "[27]": {"test_system": "Fusobacterium nucleatum NCTC 10562"}, "[28]": {"test_system": "Streptococcus mutans ATCC 10449"}, "[29]": {"test_system": "Pseudomonas aeruginosa PAO239"}, "[30]": {"test_system": "Enterococcus faecalis NCTC 12697"}, "[31]": {"test_system": "Candida albicans NCTC 3179"}, "[32]": {"test_system": "Lacticaseibacillus casei subsp. casei NCDO 161"}, "[33]": {"test_system": "Lactiplantibacillus plantarum UI50"}, "[34]": {"test_system": "Lactiplantibacillus plantarum 965"}, "[35]": {"test_system": "Pediococcus pentosaceus Pac1.0"}, "[36]": {"test_system": "Lacticaseibacillus casei NCDO 2713"}, "[37]": {"test_system": "Latilactobacillus curvatus 89"}, "[38]": {"test_system": "Carnobacterium maltaromaticum UI49"}, "[39]": {"test_system": "Pediococcus acidilactici CH"}, "[40]": {"test_system": "Latilactobacillus sakei 706"}, "[41]": {"test_system": "Pediococcus pentosaceus NCDO 990"}, "[42]": {"test_system": "Weissella viridescens NCDO 1655"}, "[43]": {"test_system": "Latilactobacillus sakei NCDO 2714"}, "[44]": {"test_system": "Staphylococcus epidermidis"}, "[45]": {"test_system": "Staphylococcus saprophyticus"}, "Bacillus thuringiensis": {"test_system": "Bacillus thuringiensis"}, "[46]": {"test_system": "Enterobacter cloacae ATCC 23355"}, "[47]": {"test_system": "Pseudomonas aeruginosa ATCC 15442"}, "Proteus mirabilis": {"test_system": "Proteus mirabilis"}, "[48]": {"test_system": "Escherichia coli CCT 1371"}, "[49]": {"test_system": "Bacillus subtilis CCT 2471"}}, "data": [{"smiles": "CC[C@H](C)[C@H](NC(=O)[C@H](CC(N)=O)NC(=O)[C@@H](NC(=O)[C@H](C)N)C(C)C)C(=O)N1CCC[C@H]1C(=O)N[C@@H](Cc1ccccc1)C(=O)N[C@@H](CCCCN)C(=O)N[C@H](C(=O)N[C@@H](Cc1cnc[nH]1)C(=O)N[C@@H](Cc1ccccc1)C(=O)N[C@@H](CCCN=C(N)N)C(=O)N[C@H]1CSSC[C@@H](C(=O)O)NC(=O)[C@H](Cc2ccccc2)NC(=O)[C@H](C)NC(=O)[C@H](C)NC(=O)[C@H](CCCCN)NC1=O)C(C)C", "note": "[AVNIPFKVHFRCKAAFC]", "values": [{"measurement": "MIC", "setting": "[1]", "value": 64, "unit": "µM"}, {"measurement": "MIC", "setting": "[2]", "value": 20.7, "unit": "µM"}, {"measurement": "MIC", "setting": "[3]", "value": 10.4, "unit": "µM"}, {"measurement": "MIC", "setting": "[4]", "value": "≥ 256", "unit": "µM"}, {"measurement": "MIC", "setting": "[5]", "value": "≥ 512", "unit": "µM"}, {"measurement": "MIC", "setting": "[6]", "value": 5.18, "unit": "µM"}, {"measurement": "MIC", "setting": "[7]", "value": "> 512", "unit": "µM"}, {"measurement": "MIC", "setting": "[8]", "value": "≥ 32", "unit": "µM"}, {"measurement": "MIC", "setting": "[9]", "value": "> 512", "unit": "µM"}, {"measurement": "MIC", "setting": "[10]", "value": "≥ 512", "unit": "µM"}, {"measurement": "MIC", "setting": "[11]", "value": "≥ 64", "unit": "µM"}, {"measurement": "MIC", "setting": "[12]", "value": 10.4, "unit": "µM"}, {"measurement": "MIC", "setting": "[13]", "value": "≥ 32", "unit": "µM"}, {"measurement": "MIC", "setting": "[14]", "value": "≥ 32", "unit": "µM"}]}, {"smiles": "CC(C)C[C@H](NC(=O)[C@@H](NC(=O)[C@H](CC(N)=O)NC(=O)[C@H](C)NC(=O)CNC(=O)[C@H](CC(C)C)NC(=O)[C@H](CCCN=C(N)N)NC(=O)[C@H](CC(C)C)NC(=O)[C@H](C)NC(=O)[C@H](CCCCN)NC(=O)CNC(=O)[C@H](CC(C)C)NC(=O)[C@H](CC(C)C)NC(=O)[C@H](CO)NC(=O)CNC(=O)[C@H](Cc1ccccc1)NC(=O)CN)C(C)C)C(N)=O", "note": "[GFGSLLGKALRLGANVL]", "values": [{"measurement": "MIC", "setting": "Escherichia coli 850", "value": 9.49, "unit": "µM"}, {"measurement": "MIC", "setting": "[15]", "value": "≥ 38", "unit": "µM"}, {"measurement": "MIC", "setting": "[3]", "value": 4.74, "unit": "µM"}, {"measurement": "MIC", "setting": "[16]", "value": 19, "unit": "µM"}, {"measurement": "MIC", "setting": "[17]", "value": 2.37, "unit": "µM"}, {"measurement": "MIC", "setting": "Escherichia coli 780", "value": 4.74, "unit": "µM"}, {"measurement": "MIC", "setting": "[18]", "value": 9.49, "unit": "µM"}, {"measurement": "MIC", "setting": "[19]", "value": "≥ 75.9", "unit": "µM"}, {"measurement": "MIC", "setting": "[20]", "value": 4.74, "unit": "µM"}, {"measurement": "MIC", "setting": "[21]", "value": 6, "unit": "µM"}, {"measurement": "MIC", "setting": "[22]", "value": 4.74, "unit": "µM"}, {"measurement": "MIC", "setting": "[23]", "value": 3, "unit": "µM"}, {"measurement": "MIC", "setting": "[24]", "value": 25, "unit": "µM"}, {"measurement": "MIC", "setting": "[25]", "value": 9.49, "unit": "µM"}, {"measurement": "MIC", "setting": "[26]", "value": 25, "unit": "µM"}]}, {"smiles": "CC[C@H](C)[C@H](NC(=O)CNC(=O)CNC(=O)[C@@H](NC(=O)[C@H](Cc1ccccc1)NC(=O)[C@H](C)NC(=O)[C@H](CCCCN)NC(=O)CNC(=O)[C@H](Cc1ccccc1)NC(=O)[C@H](CCCCN)NC(=O)CNC(=O)[C@H](CC(C)C)NC(=O)[C@H](CO)NC(=O)[C@H](Cc1cnc[nH]1)NC(=O)[C@H](C)NC(=O)[C@H](Cc1ccccc1)NC(=O)[C@H](CCC(=O)O)NC(=O)[C@H](CCCCN)NC(=O)[C@@H](NC(=O)CN)[C@@H](C)CC)C(C)C)C(=O)N[C@@H](CC(C)C)C(=O)N[C@@H](CC(N)=O)C(=O)N[C@@H](CCC(N)=O)C(=O)O", "note": "[GIKEFAHSLGKFGKAFVGGILNQ]", "values": [{"measurement": "MIC", "setting": "[3]", "value": "> 200", "unit": "µM"}, {"measurement": "MIC", "setting": "[27]", "value": 12.5, "unit": "µM"}, {"measurement": "MIC", "setting": "[28]", "value": "≥ 50", "unit": "µM"}, {"measurement": "MIC", "setting": "[6]", "value": "> 200", "unit": "µM"}, {"measurement": "MIC", "setting": "[29]", "value": "≥ 100", "unit": "µM"}, {"measurement": "MIC", "setting": "[21]", "value": "≥ 50", "unit": "µM"}, {"measurement": "MIC", "setting": "[30]", "value": "≥ 100", "unit": "µM"}, {"measurement": "MIC", "setting": "[31]", "value": "≥ 100", "unit": "µM"}, {"measurement": "MIC", "setting": "[26]", "value": "> 100", "unit": "µM"}]}, {"smiles": "CC[C@H](C)[C@H](NC(=O)[C@H](C)NC(=O)[C@@H](NC(=O)[C@H](C)NC(=O)CNC(=O)[C@H](CCSC)NC(=O)[C@H](CCC(N)=O)NC(=O)[C@H](CC(C)C)NC(=O)[C@H](CO)NC(=O)[C@H](Cc1ccc(O)cc1)NC(=O)[C@H](C)NC(=O)[C@H](CO)NC(=O)[C@H](CO)NC(=O)[C@@H](N)CCCCN)[C@@H](C)O)C(=O)N[C@@H](CCCCN)C(=O)N[C@@H](CCC(N)=O)C(=O)N[C@H](C(=O)N[C@@H](CCCCN)C(=O)N[C@@H](CCCCN)C(=O)N[C@@H](CC(C)C)C(=O)N[C@@H](Cc1ccccc1)C(=O)N[C@@H](CCCCN)C(=O)N[C@@H](CCCCN)C(=O)N[C@@H](Cc1c[nH]c2ccccc12)C(=O)NCC(=O)N[C@@H](Cc1c[nH]c2ccccc12)C(=O)O)C(C)C", "note": "[KSSAYSLQMGATAIKQVKKLFKKWGW]", "values": [{"measurement": "MIC", "setting": "[32]", "value": 0.25, "unit": "µM"}, {"measurement": "MIC", "setting": "[33]", "value": 6, "unit": "µM"}, {"measurement": "MIC", "setting": "[34]", "value": 0.3, "unit": "µM"}, {"measurement": "MIC", "setting": "[35]", "value": 0.1, "unit": "µM"}, {"measurement": "MIC", "setting": "[36]", "value": 6, "unit": "µM"}, {"measurement": "MIC", "setting": "[37]", "value": 0.5, "unit": "µM"}, {"measurement": "MIC", "setting": "[38]", "value": 6, "unit": "µM"}, {"measurement": "MIC", "setting": "[39]", "value": 0.5, "unit": "µM"}, {"measurement": "MIC", "setting": "[40]", "value": 0.5, "unit": "µM"}, {"measurement": "MIC", "setting": "[41]", "value": 6, "unit": "µM"}, {"measurement": "MIC", "setting": "[42]", "value": 0.02, "unit": "µM"}, {"measurement": "MIC", "setting": "[43]", "value": 0.06, "unit": "µM"}]}, {"smiles": "CC[C@H](C)[C@H](NC(=O)CNC(=O)[C@H](CCCCN)NC(=O)[C@H](CC(C)C)NC(=O)[C@H](CC(N)=O)NC(=O)[C@@H](N)CC(C)C)C(=O)N[C@@H](Cc1ccccc1)C(=O)N[C@@H](CCCCN)C(=O)N[C@@H](CCCCN)C(=O)N[C@H](C(=O)N[C@@H](C)C(=O)N[C@@H](CO)C(=O)N[C@@H](CC(C)C)C(=O)N[C@@H](CC(C)C)C(=O)N[C@H](C(=O)O)[C@@H](C)O)C(C)C", "note": "[LNLKGIFKKVASLLT]", "values": [{"measurement": "MIC", "setting": "[44]", "value": "≥ 60", "unit": "µM"}, {"measurement": "MIC", "setting": "[45]", "value": 6, "unit": "µM"}, {"measurement": "MIC", "setting": "Bacillus thuringiensis", "value": "≥ 60", "unit": "µM"}, {"measurement": "MIC", "setting": "[3]", "value": 6, "unit": "µM"}, {"measurement": "MIC", "setting": "[46]", "value": "≥ 60", "unit": "µM"}, {"measurement": "MIC", "setting": "[6]", "value": 6, "unit": "µM"}, {"measurement": "MIC", "setting": "[7]", "value": "> 60", "unit": "µM"}, {"measurement": "MIC", "setting": "[47]", "value": 30, "unit": "µM"}, {"measurement": "MIC", "setting": "Proteus mirabilis", "value": "≥ 60", "unit": "µM"}, {"measurement": "MIC", "setting": "[48]", "value": 6, "unit": "µM"}, {"measurement": "MIC", "setting": "[49]", "value": "≥ 60", "unit": "µM"}]}]}
